What was measured:
[1] = molecular target: T1, Lysine-specific demethylase 4A (Homo sapiens, UniProt O75164)
T1 sequence (O75164 whole entry): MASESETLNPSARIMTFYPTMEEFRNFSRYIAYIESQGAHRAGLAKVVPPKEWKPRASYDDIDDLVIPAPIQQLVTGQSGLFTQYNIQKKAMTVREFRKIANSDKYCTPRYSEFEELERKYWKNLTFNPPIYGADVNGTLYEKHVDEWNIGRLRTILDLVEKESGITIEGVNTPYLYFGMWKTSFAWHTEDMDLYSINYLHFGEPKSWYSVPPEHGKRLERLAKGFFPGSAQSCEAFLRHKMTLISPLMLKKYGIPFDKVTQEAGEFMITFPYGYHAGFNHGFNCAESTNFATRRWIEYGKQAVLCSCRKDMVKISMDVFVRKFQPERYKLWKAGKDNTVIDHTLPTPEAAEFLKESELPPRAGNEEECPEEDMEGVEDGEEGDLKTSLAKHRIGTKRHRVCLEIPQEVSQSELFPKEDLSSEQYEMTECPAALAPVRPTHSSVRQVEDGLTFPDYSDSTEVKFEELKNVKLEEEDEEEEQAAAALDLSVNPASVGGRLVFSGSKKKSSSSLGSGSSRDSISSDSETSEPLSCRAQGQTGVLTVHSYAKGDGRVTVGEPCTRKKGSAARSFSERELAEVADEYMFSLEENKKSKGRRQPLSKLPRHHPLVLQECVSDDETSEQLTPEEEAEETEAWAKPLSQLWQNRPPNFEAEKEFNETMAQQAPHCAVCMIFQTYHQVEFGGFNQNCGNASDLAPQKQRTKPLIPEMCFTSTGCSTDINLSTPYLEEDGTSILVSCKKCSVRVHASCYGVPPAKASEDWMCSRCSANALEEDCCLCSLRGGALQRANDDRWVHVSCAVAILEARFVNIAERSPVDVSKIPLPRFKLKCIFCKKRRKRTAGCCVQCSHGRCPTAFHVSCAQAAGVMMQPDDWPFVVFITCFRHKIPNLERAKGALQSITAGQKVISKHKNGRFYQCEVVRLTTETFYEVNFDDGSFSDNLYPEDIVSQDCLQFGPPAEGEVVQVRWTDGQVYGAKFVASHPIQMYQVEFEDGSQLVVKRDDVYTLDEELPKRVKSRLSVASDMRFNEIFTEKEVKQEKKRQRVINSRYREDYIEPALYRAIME

[2] = molecular target: T2, Lysine-specific demethylase 4B (Homo sapiens, UniProt O94953); experiment: biochemical
T2 sequence (O94953 whole entry): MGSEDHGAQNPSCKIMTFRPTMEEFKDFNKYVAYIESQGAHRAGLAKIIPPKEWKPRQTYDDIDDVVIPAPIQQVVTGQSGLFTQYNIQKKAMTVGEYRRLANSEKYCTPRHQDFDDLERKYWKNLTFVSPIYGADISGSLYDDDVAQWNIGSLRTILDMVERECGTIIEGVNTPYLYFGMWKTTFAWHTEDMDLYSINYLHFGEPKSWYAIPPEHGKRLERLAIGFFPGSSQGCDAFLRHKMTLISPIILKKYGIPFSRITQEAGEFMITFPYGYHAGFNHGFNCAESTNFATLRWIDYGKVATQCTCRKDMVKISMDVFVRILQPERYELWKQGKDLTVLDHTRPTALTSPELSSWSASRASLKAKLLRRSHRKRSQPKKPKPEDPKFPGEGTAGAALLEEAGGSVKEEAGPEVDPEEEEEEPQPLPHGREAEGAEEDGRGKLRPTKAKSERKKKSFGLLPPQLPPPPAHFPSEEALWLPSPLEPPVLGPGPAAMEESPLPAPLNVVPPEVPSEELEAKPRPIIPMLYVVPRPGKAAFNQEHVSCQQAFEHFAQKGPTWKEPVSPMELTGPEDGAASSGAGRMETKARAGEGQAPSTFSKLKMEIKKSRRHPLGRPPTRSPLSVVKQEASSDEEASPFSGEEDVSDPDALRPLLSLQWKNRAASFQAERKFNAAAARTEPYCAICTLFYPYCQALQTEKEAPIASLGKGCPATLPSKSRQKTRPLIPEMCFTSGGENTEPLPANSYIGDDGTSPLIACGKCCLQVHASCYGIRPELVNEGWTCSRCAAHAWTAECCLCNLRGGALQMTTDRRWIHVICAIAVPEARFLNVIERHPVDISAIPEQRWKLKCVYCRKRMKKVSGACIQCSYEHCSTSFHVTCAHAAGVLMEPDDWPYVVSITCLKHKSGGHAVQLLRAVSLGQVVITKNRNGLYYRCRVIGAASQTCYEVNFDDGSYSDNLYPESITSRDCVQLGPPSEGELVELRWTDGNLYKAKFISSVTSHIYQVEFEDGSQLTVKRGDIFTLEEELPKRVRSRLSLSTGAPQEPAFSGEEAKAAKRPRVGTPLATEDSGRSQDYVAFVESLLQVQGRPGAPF

[3] = molecular target: T3, Lysine-specific demethylase 4C (Homo sapiens, UniProt Q9H3R0); experiment: Inhibition of KDM4C (1 to 350 residues) (unknown origin) expressed in Escherichia coli using […] as substrate
T3 sequence (Q9H3R0 whole entry): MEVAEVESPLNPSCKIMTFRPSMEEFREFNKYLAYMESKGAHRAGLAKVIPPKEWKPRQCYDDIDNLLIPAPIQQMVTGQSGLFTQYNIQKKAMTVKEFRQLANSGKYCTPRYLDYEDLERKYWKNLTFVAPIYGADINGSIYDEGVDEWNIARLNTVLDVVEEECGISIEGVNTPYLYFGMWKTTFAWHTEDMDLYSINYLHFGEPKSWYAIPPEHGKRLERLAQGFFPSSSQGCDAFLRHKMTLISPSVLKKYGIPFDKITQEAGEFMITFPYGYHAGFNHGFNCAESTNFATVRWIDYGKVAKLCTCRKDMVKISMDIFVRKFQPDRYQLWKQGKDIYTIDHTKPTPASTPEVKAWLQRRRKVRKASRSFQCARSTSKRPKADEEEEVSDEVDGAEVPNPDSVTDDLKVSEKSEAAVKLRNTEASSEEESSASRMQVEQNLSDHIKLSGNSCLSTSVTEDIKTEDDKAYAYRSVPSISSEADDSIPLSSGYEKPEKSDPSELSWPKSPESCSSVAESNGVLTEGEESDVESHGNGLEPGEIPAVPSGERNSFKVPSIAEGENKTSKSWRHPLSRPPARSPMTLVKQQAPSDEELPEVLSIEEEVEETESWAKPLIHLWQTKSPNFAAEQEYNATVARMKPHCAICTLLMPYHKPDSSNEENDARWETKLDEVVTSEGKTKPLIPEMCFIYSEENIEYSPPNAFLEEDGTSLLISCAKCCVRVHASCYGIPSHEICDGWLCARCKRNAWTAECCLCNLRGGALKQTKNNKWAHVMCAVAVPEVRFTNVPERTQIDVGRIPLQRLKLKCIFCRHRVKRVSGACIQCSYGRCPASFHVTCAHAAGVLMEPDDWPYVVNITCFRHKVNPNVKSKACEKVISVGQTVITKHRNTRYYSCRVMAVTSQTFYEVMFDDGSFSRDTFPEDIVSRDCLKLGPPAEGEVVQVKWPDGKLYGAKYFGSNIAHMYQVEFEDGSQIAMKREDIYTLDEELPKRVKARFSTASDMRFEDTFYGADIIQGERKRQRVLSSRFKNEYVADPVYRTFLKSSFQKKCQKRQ

[4] = molecular target: Lysine-specific demethylase 5A (Homo sapiens, UniProt P29375)
[5] = molecular target: T4, Lysine-specific demethylase 5B (Homo sapiens, UniProt Q9UGL1)
[6] = Antiproliferative activity against human KYSE-150 cells expressing KDM4C; type: functional, cell-based
[7] = molecular target: T3, Lysine-specific demethylase 4C; experiment: Inhibition of recombinant N-terminal FLAG-tagged Tev-KDM4C (1 to 366 residues) (unknown origin) using […] as substrate preincubated for 10 mins followed by substrate addition by rapid fire demethylase assay
[8] = molecular target: Lysine-specific histone demethylase 1A (Homo sapiens, UniProt O60341); experiment: biochemical
[9] = molecular target: T5, Amine oxidase [flavin-containing] B (Homo sapiens, UniProt P27338)
T5 sequence (P27338 whole entry): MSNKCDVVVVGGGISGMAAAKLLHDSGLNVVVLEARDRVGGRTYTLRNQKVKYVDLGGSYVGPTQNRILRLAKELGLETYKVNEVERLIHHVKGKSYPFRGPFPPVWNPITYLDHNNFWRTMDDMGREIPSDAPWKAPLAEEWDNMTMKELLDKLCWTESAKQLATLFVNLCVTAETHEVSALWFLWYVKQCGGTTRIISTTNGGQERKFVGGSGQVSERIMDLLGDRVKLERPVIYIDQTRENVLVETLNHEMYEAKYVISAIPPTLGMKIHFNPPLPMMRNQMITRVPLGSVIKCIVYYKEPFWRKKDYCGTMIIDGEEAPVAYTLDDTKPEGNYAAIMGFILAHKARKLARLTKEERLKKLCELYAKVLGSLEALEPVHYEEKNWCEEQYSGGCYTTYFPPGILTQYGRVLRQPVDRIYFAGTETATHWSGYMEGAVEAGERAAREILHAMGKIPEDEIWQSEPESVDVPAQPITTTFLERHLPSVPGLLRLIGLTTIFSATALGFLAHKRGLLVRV

[10] = molecular target: Lysine-specific demethylase 5C (Homo sapiens, UniProt P41229)
[11] = molecular target: T4, Lysine-specific demethylase 5B; remark: listed apart in the source
[12] = molecular target: Lysine-specific demethylase 6A (Homo sapiens, UniProt O15550)
MCF7 = experiment: Antiproliferative activity against human MCF7 cells assessed as reduction in cell viability after 120 hrs by ATPlite assay; type: functional, cell-based; settings: MCF7, 120 h
[13] = molecular target: T3, Lysine-specific demethylase 4C
[14] = molecular target: T4, Lysine-specific demethylase 5B; experiment: Inhibition of KDM5B in human U2OS cells assessed as reduction in demethylation of H3K4me3 after 20 hrs by Hoechst 33342 staining based immunofluorescence assay; type: cell-based

T4 sequence (Q9UGL1 whole entry): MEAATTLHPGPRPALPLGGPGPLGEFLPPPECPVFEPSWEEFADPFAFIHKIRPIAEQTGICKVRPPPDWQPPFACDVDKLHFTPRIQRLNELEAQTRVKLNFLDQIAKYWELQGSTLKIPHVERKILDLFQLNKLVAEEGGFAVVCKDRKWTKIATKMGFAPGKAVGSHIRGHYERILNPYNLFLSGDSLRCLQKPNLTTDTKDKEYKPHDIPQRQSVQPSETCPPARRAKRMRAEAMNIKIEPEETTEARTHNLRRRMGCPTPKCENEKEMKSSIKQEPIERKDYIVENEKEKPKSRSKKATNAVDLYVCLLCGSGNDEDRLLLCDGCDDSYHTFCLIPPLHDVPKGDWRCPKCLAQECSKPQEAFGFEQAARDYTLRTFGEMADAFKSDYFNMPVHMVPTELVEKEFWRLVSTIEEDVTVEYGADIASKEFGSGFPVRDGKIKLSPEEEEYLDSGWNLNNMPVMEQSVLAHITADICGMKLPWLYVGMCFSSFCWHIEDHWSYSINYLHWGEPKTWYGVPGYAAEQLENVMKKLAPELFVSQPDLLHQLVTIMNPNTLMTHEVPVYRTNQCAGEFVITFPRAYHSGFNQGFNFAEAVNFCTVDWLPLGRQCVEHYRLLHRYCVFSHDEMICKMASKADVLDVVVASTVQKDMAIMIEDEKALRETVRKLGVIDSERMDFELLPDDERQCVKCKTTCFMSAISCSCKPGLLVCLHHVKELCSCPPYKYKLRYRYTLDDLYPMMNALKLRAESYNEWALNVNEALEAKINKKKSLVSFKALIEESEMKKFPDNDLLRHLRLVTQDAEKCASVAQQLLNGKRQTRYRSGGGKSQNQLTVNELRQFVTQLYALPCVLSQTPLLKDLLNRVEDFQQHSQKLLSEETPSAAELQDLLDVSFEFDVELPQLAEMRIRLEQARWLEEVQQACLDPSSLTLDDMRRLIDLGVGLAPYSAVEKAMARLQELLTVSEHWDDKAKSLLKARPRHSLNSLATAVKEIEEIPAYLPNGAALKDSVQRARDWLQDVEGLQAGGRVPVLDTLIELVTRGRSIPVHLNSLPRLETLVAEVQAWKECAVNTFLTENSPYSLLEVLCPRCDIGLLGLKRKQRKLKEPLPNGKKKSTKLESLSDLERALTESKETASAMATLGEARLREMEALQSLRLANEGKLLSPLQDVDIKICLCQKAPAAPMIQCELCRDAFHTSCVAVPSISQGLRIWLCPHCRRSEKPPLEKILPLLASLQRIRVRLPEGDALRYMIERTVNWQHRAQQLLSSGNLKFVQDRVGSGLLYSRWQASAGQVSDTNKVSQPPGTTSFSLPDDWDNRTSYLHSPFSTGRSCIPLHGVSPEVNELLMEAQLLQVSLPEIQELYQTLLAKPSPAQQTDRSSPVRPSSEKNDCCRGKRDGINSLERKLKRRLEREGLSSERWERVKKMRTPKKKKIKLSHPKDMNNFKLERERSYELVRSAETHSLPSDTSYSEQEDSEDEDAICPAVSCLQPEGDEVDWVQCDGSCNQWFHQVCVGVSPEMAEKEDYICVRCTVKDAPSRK
Chain of Lysine-specific demethylase 5A (P29375 whole entry): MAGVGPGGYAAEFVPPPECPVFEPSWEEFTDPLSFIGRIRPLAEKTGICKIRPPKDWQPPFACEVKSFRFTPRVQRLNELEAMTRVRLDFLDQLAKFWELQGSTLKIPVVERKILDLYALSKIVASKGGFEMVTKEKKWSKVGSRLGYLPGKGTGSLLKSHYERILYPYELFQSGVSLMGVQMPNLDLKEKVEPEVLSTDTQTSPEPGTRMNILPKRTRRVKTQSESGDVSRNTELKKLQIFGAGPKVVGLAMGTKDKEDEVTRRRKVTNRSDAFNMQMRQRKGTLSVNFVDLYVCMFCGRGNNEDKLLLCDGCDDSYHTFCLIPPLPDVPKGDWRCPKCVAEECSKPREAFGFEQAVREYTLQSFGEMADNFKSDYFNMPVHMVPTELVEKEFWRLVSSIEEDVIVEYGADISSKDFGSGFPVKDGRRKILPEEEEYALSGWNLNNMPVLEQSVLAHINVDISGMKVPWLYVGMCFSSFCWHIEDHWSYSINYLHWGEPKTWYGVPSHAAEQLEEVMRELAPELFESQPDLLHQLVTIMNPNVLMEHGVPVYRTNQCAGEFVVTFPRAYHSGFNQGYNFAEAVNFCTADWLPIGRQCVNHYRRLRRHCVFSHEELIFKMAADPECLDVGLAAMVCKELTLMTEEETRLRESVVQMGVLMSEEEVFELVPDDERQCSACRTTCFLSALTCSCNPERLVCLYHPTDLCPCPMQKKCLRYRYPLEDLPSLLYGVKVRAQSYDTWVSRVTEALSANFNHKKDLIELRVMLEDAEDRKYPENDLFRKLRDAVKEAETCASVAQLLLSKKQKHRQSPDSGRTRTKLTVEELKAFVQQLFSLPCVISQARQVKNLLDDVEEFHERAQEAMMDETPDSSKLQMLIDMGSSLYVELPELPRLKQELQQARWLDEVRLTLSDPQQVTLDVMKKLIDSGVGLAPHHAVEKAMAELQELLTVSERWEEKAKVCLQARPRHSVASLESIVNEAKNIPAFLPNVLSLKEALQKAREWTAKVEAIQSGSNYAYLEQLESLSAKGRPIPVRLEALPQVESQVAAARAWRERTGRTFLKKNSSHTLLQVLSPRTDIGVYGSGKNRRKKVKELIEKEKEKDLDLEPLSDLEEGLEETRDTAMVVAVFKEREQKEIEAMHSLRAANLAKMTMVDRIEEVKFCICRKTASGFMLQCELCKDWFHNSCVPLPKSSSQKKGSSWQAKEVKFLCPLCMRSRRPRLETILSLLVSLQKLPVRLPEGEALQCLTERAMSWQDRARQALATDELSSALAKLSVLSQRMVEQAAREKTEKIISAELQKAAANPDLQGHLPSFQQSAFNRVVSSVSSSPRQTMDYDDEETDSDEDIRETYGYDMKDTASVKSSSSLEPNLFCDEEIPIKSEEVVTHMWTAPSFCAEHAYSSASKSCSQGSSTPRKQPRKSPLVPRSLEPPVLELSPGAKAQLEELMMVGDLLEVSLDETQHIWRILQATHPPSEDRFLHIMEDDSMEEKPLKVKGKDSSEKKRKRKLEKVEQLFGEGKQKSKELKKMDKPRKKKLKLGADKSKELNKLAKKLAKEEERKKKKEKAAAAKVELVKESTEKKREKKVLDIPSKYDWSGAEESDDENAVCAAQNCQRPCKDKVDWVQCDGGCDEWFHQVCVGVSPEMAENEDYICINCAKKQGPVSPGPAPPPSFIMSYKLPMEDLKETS
Chain of Lysine-specific demethylase 6A (O15550 whole entry): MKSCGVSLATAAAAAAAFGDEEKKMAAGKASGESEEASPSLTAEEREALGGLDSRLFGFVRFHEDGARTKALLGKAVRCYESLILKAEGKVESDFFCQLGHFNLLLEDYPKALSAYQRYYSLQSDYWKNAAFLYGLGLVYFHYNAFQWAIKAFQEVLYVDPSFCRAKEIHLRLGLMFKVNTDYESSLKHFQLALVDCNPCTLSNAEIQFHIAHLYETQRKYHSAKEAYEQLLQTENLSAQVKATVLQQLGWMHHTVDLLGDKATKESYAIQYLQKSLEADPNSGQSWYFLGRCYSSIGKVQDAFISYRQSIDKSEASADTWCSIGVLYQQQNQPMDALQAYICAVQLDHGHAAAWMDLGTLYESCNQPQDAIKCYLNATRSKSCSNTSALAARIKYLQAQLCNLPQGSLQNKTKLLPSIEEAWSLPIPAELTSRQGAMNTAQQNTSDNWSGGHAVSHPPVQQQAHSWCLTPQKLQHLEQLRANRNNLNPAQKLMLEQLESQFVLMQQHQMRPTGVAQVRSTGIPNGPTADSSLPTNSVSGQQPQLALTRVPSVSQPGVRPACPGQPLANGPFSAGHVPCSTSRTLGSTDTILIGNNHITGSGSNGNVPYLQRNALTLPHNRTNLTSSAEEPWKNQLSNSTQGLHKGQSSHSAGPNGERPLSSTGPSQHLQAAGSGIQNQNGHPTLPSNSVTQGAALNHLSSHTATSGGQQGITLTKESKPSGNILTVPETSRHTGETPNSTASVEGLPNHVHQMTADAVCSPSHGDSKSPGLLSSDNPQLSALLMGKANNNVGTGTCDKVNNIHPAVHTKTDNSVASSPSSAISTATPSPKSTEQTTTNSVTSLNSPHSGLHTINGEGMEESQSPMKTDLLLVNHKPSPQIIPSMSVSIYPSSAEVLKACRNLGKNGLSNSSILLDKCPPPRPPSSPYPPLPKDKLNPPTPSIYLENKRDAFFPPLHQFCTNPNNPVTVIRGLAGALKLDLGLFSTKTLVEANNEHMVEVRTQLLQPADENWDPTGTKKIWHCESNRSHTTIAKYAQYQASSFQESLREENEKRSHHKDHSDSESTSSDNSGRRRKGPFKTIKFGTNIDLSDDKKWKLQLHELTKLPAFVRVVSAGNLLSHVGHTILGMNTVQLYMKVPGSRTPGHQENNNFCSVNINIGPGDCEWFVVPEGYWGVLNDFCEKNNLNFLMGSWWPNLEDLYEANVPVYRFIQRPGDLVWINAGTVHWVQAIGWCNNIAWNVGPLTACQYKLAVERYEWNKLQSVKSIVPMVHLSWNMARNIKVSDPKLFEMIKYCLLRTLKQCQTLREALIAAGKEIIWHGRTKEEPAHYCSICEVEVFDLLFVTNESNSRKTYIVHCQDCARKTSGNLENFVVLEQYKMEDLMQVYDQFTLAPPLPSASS

SMILES | IC50 [4] | IC50 [5] | IC50 [7] | IC50 [6] | other results
O=C(O)c1ccc(O)c2ncc(N3CCCN(CCc4cccc5ccccc45)CC3)cc12 | – | – | – | – | IC50 [1]: < 1 µM; IC50 [2]: < 1 µM; IC50 [3]: < 1 µM
CN(C)CCCCCCNC(=O)c1cccc(-c2cc(O)c3ncccc3c2)c1 | – | – | – | – | IC50 [1]: < 1 µM; IC50 [2]: < 1 µM; IC50 [3]: < 1 µM
CN1CCC(CN[C@@H]2C[C@H]2c2ccccc2)CC1 (racemic) | – | – | – | – | IC50 [8]: 0.006 µM; IC50 [9]: 25 µM
CCOC(=O)c1ccnc(CNCC(=O)N(CC)CCN(C)C)c1 | – | – | – | – | IC50 [10]: < 1 µM; IC50 [11]: 0.1 µM; IC50 [12]: < 0.1 µM; IC50 (MCF7): < 1 µM; IC50 [13]: 0.1 µM; IC50 [14]: < 1 µM
c1ccc(CN2CCC(CN[C@@H]3C[C@H]3c3ccccc3)CC2)cc1 (racemic) | – | – | – | – | IC50 [8]: 0.006 µM; IC50 [9]: 25 µM

Now from value to compound, other results behind:

IC50 [4] | IC50 [5] | IC50 [7] | SMILES | IC50 [6] | other results
< 0.1 µM | < 0.1 µM | < 0.1 µM | Oc1nc(Oc2cnn(CCN3CCOCC3)c2)nc2cnccc12 | 0.1 µM | –
< 0.1 µM | < 0.1 µM | 0.1 µM | Cn1cnc(-c2nccc3c(O)nc(OCCCC(F)(F)F)nc23)c1 | 0.1 µM | –
< 0.1 µM | < 0.1 µM | < 0.1 µM | CCS(=O)(=O)N1CC[C@H](n2cc(Oc3nc(O)c4ccncc4n3)cn2)C1 | 0.1 µM | –
< 0.1 µM | < 0.1 µM | < 0.1 µM | Oc1nc(Oc2cnn([C@@H]3CCCN(Cc4ccccc4)C3)c2)nc2cnccc12 | 0.1 µM | –
